Common to all, as to type: cell-based
Test [1] deals with pRb (Ser780). Briefly: High content imaging of Rb phosphorylation (Ser780), MDA-MB-361. To be noted: Homo sapiens, 16 hours, mean ± Stdev n = 2. Here is the method: (§1) Relative IC50/EC50 values were determined by curve fitting to a four parameter logistic equation: Y = bottom + ((top-bottom)/ (1+exp(HillSlope*(X – LnIC50)), where X is the natural log of dose/concentration, Y is response, decreasing as X increases, top and bottom are plateaus in the same units as Y, lnIC50 is the natural log of potency, in the same log units as X, and HillSlope measures the steepness of the curve. Data were plotted using GraphPad Prism.
(§2) As controls, cells were treated with 10 µM palbociclib or vehicle ( 0.2 % v/v DMSO). Additional details for cell-based assays are provided in the Supplemental Methods. […]
(§3) www.impactjournals.com/oncotarget/ Oncotarget Supplementary Materials
(§4) Preclinical characterization of abemaciclib in hormone receptor […]
(§5) METHODS High content imaging cell-based assays for monitoring phosphorylation of Rb (ser780), G1 arrest and
(§6) Enzyme kinetics of CDK6/cyclin D3 complexes Cells were fixed with para-formaldehyde and Rb phosphorylation at Serine 780 was detected using CDK6/cyclin D3 activity was measured by the a primary mouse anti-Rb (PS780) antibody followed phosphorylation of CTRF using [g-33P] […] Plates were read in an kinase buffer containing 68 mM Hepes at pH 7.5, 6.67 mM Acumen Explorer eX3 (TTP Labtech). […]
(§7) (EDTA) was used to determine the level of background evaluated by measuring PI signal using high content 33P in the absence of enzyme activity. […]

For a further test, the system named is EFM-19 cells. Briefly: PI high content imaging of G1 arrest and cell proliferation, EFM-19. To be noted: Homo sapiens, at least 2 DT. Here is the method: Relative IC50/EC50 values were determined by curve fitting to a four parameter logistic equation: Y = bottom + ((top-bottom)/ (1+exp(HillSlope*(X – LnIC50)), where X is the natural log of dose/concentration, Y is response, decreasing as X increases, top and bottom are plateaus in the same units as Y, lnIC50 is the natural log of potency, in the same log units as X, and HillSlope measures the steepness of the curve. Data were plotted using GraphPad Prism. […]
as §4
METHODS High content imaging cell-based assays for monitoring phosphorylation of Rb (ser780), G1 arrest and […]
ATP at 20°C by a secondary goat anti-mouse IgG-Alexa Fluor 488 in a 96-well plate filtration assay format. […] Plates were read in an kinase buffer containing 68 mM Hepes at pH 7.5, 6.67 mM Acumen Explorer eX3 (TTP Labtech). […] 10µL of CDK6/cyclin corresponding to 500-530 nm and the percentage of D3 enzyme complex (Millipore 14-519, #D13BP009NA) cells with pRb signal relative to the total PI stained (1 nM final concentration in the assay) was added onto subpopulation was calculated by the instrument’s software a mix of substrate and test compound. […]
as §7

Test [2] deals with pRb (Ser780). The test is described as follows: High content imaging of Rb phosphorylation (Ser780), MCF7. To be noted: Homo sapiens, mean ± Stdev n = 2. The procedure:
as §1, §2, §3, §4, §5, §6, §7

Where two headings read alike, the source gives them in different places.

Consider `CCN1CCN(Cc2ccc(Nc3ncc(F)c(-c4cc(F)c5nc(C)n(C(C)C)c5c4)n3)nc2)CC1` [abemaciclib, Abemaciclib], for which the IC50 was 67 ± 37 nM in the test with pRb (Ser780) [1]; 32 ± 21 nM in the test with EFM-19 cells (n = 2, read-out: IC50 2n (G1 arrest)); 19 ± 4 nM with EFM-19 cells (n = 2, read-out: IC50 Cell number); 13 ± 2 nM in the test on pRb (Ser780) [2].

Source of the values: article PMC5642494 (Oncotarget, 2017).
